# Test results: US10526389B2, “Peptides and combinations of peptides for use in immunotherapy against lung cancer, including NSCLC and other cancers” (Immatics Biotechnologies GmbH, priority 2015, dated 2020)
# Legend:
# CD8+ T cells [1] = test: In vitro immunogenicity of HLA-A*24 peptides (CD8+ T-cell priming with aAPCs, multimer staining); format: cell-based, human
# Experimental: (§1) In order to obtain information regarding the immunogenicity of the TUMAPs of the present invention, the inventors performed investigations using an in vitro T-cell priming assay based on repeated stimulations of CD8+ T cells with artificial antigen presenting cells (aAPCs) loaded with peptide/MHC complexes and anti-CD28 antibody.
# (§2) Generation of pMHC/anti-CD28 coated beads, T-cell stimulations and readout was performed in a highly defined in vitro system using four different pMHC molecules per stimulation condition and 8 different pMHC molecules per readout condition.
# (§3) The purified co-stimulatory mouse IgG2a anti human CD28 Ab 9.3 (Jung et al., 1987) was chemically biotinylated using Sulfo-N-hydroxysuccinimidobiotin as recommended by the manufacturer (Perbio, Bonn, Germany). Beads used were 5.6 μm diameter streptavidin coated polystyrene particles (Bangs Laboratories, Illinois, USA).
# (§4) 800.000 beads/200 μl were coated in 96-well plates in the presence of 4×12.5 ng different biotin-pMHC, washed and 600 ng biotin anti-CD28 were added subsequently in a volume of 200 μl. Stimulations were initiated in 96-well plates by co-incubating 1×10^6 CD8+ T cells with 2×10^5 washed coated beads in 200 μl TCM supplemented with 5 ng/ml IL-12 (PromoCell) for 3 days at 37° C. Half of the medium was then exchanged by fresh TCM supplemented with 80 U/ml IL-2 and incubating was continued for 4 days at 37° C. This stimulation cycle was performed for a total of three times. For the pMHC multimer readout using 8 different pMHC molecules per condition, a two-dimensional combinatorial coding approach was used as previously described (Andersen et al., 2012) with minor modifications encompassing coupling to 5 different fluorochromes. Finally, multimeric analyses were performed by staining the cells with Live/dead near IR dye (Invitrogen, Karlsruhe, Germany), CD8-FITC antibody clone SK1 (BD, Heidelberg, Germany) and fluorescent pMHC multimers. For analysis, a BD LSRII SORP cytometer equipped with appropriate lasers and filters was used. Peptide specific cells were calculated as percentage of total CD8+ cells. Evaluation of multimeric analysis was done using the FlowJo software (Tree Star, Oregon, USA). In vitro priming of specific multimer+CD8+ lymphocytes was detected by comparing to negative control stimulations.
# Exemplary flow cytometry results after TUMAP-specific multimer staining for 3 peptides of the invention are shown in FIGS. 3A-3E together with corresponding negative controls.
# CD8+ T cells [2] = test: In vitro immunogenicity of HLA-A*02 peptides (CD8+ T-cell priming with aAPCs, multimer staining); format: cell-based, human
# Excerpt: as §1
# In order to perform in vitro stimulations by artificial antigen presenting cells loaded with peptide-MHC complex (pMHC) and anti-CD28 antibody, the inventors first isolated CD8+ T cells from fresh HLA-A*02 leukapheresis products via positive selection using CD8 microbeads (Miltenyi Biotec, Bergisch-Gladbach, Germany) of healthy donors obtained from the University clinics Mannheim, Germany, after informed consent.
# PBMCs and isolated CD8+ lymphocytes were incubated in T-cell medium (TCM) until use consisting of RPMI-Glutamax (Invitrogen, Karlsruhe, Germany) supplemented with 10% heat inactivated human AB serum (PAN-Biotech, Aidenbach, Germany), 100 U/ml Penicillin/100 μg/ml Streptomycin (Cambrex, Cologne, Germany), 1 mM sodium pyruvate (CC Pro, Oberdorla, Germany), 20 μg/ml Gentamycin (Cambrex). 2.5 ng/ml IL-7 (PromoCell, Heidelberg, Germany) and 10 U/ml IL-2 (Novartis Pharma, Nurnberg, Germany) were also added to the TCM at this step.
# as §2, §3, §4
Substance,in vitro immunogenicity: donors (CD8+ T cells [1]),in vitro immunogenicity: wells (CD8+ T cells [1]),in vitro immunogenicity: donors (CD8+ T cells [2]),in vitro immunogenicity: wells (CD8+ T cells [2])
ABCA13-003 (EYLPEFLHTF; listed as Homo sapiens),++ (20%-49% = ++),+ (<20% = +),–,–
ABCC1-001 (VYVTIDENNIL; listed as Homo sapiens),++ (20%-49% = ++),+ (<20% = +),–,–
AHD-001 (EYSDVLAKLAF; listed as Homo sapiens),+++ (50%-69% = +++),+ (<20% = +),–,–
AIFM2-001 (AYKPGALTF; listed as Homo sapiens),++ (20%-49% = ++),+ (<20% = +),–,–
C6orf132-001 (RYGSPINTF; listed as Homo sapiens),+++ (50%-69% = +++),+ (<20% = +),–,–
COL6A3-001 (SYLQAANAL; listed as Homo sapiens),++ (20%-49% = ++),+ (<20% = +),–,–
COL6A3-012 (RYPPPVREF; listed as Homo sapiens),++++ (>= 70% = ++++),++ (20%-49% = ++),–,–
COL6A3-013 (EYQPEMLEKF; listed as Homo sapiens),+ (<20% = +),+ (<20% = +),–,–
COL12A1-003 (SYSIGIANF; listed as Homo sapiens),++++ (>= 70% = ++++),+ (<20% = +),–,–
COLEC12-001 (IYAGQWNDF; listed as Homo sapiens),+++ (50%-69% = +++),+ (<20% = +),–,–
DCSTA-001 (KYIEAIQWI; listed as Homo sapiens),++++ (>= 70% = ++++),++ (20%-49% = ++),–,–
DDX5-007 (NYTNGSFGSNF; listed as Homo sapiens),+ (<20% = +),+ (<20% = +),–,–
DYR-001 (VYTZIQSRF; listed as Homo sapiens),++ (20%-49% = ++),+ (<20% = +),–,–
FAM83A-001 (PFLQASPHF; listed as Homo sapiens),++++ (>= 70% = ++++),++ (20%-49% = ++),–,–
FKBP10-002 (TYIGQGYII; listed as Homo sapiens),++++ (>= 70% = ++++),+ (<20% = +),–,–
G2E-002 (LYINKANIW; listed as Homo sapiens),++ (20%-49% = ++),+ (<20% = +),–,–
GLS-001 (DYIPQLAKF; listed as Homo sapiens),++++ (>= 70% = ++++),+ (<20% = +),–,–
HSPBP-001 (RYLEAGAAGLRW; listed as Homo sapiens),+ (<20% = +),+ (<20% = +),–,–
IQGAP1-001 (TYAALNSKATF; listed as Homo sapiens),+ (<20% = +),+ (<20% = +),–,–
KDM6B-001 (RYGGSFAEL; listed as Homo sapiens),++ (20%-49% = ++),+ (<20% = +),–,–
KFLEHTNFEF (listed as Homo sapiens) [SEQ ID No. 39],++ (20%-49% = ++),+ (<20% = +),–,–
KLRD-001 (QYLFPSFETF; listed as Homo sapiens),++++ (>= 70% = ++++),+ (<20% = +),–,–
KYLEKYYNL (listed as Homo sapiens) [SEQ ID No. 30],++++ (>= 70% = ++++),++ (20%-49% = ++),–,–
LAPTM5-001 (SYMEVPTYLNF; listed as Homo sapiens),++ (20%-49% = ++),+ (<20% = +),–,–

Substance,in vitro immunogenicity: donors (CD8+ T cells [1]),in vitro immunogenicity: wells (CD8+ T cells [1]),in vitro immunogenicity: donors (CD8+ T cells [2]),in vitro immunogenicity: wells (CD8+ T cells [2])
LYQILQGIVF (listed as Homo sapiens) [SEQ ID No. 161],++++ (>= 70% = ++++),+ (<20% = +),–,–
MREG-001 (RYLFVVDRL; listed as Homo sapiens),++++ (>= 70% = ++++),++++ (>= 70% = ++++),–,–
MUC16-001 (TYSEKTTLF; listed as Homo sapiens),++ (20%-49% = ++),+ (<20% = +),–,–
NUP153-001 (VYFKPSLTPSGEF; listed as Homo sapiens),+ (<20% = +),+ (<20% = +),–,–
OLFML2B-001 (YYGNTLVEF; listed as Homo sapiens),++++ (>= 70% = ++++),++ (20%-49% = ++),–,–
OLFML2B-002 (YYYGNTLVEF; listed as Homo sapiens),++ (20%-49% = ++),+ (<20% = +),–,–
PPTC-001 (HYFNTPFQL; listed as Homo sapiens),++++ (>= 70% = ++++),++ (20%-49% = ++),–,–
PSMA4-001 (LYIGWDKHYGF; listed as Homo sapiens),++++ (>= 70% = ++++),+ (<20% = +),–,–
PVRL1-001 (IYNPSMGVSVL; listed as Homo sapiens),++ (20%-49% = ++),+ (<20% = +),–,–
RASA2-001 (YYVDKLFNTI; listed as Homo sapiens),++ (20%-49% = ++),+ (<20% = +),–,–
RBPJ-001 (RYLHVEGGNF; listed as Homo sapiens),++ (20%-49% = ++),+ (<20% = +),–,–
RFMDGHITF (listed as Homo sapiens) [SEQ ID No. 25],++ (20%-49% = ++),+ (<20% = +),–,–
RYISPDQLADL (listed as Homo sapiens) [SEQ ID No. 47],+++ (50%-69% = +++),+ (<20% = +),–,–
TLLDFINAV (listed as Homo sapiens) [SEQ ID No. 108],–,–,+++ (50%-69% = +++),+ (<20% = +)
TLYPHTSQV (listed as Homo sapiens) [SEQ ID No. 140],–,–,++++ (>= 70% = ++++),++ (20%-49% = ++)
TMEM43-001 (KLLSDPNYGV; listed as Homo sapiens),–,–,++++ (>= 70% = ++++),+ (<20% = +)
TNC-001 (AMTQLLAGV; listed as Homo sapiens),–,–,++ (20%-49% = ++),+ (<20% = +)
UBE2S-001 (ALNEEAGRLLL; listed as Homo sapiens),–,–,++++ (>= 70% = ++++),+ (<20% = +)
VLLPVEVATHYL (listed as Homo sapiens) [SEQ ID No. 142],–,–,++ (20%-49% = ++),+ (<20% = +)
VLTSDSPAL (listed as Homo sapiens) [SEQ ID No. 19],–,–,++++ (>= 70% = ++++),+ (<20% = +)
WNT5A-001 (AMSSKFFLV; listed as Homo sapiens),–,–,++++ (>= 70% = ++++),++ (20%-49% = ++)
YLNVQVKEL (listed as Homo sapiens) [SEQ ID No. 11],–,–,++++ (>= 70% = ++++),+ (<20% = +)
YVYQNNIYL (listed as Homo sapiens) [SEQ ID No. 115],–,–,++++ (>= 70% = ++++),+ (<20% = +)
